Measured values from US20230399312A1, “SUBSTITUTED PYRIMIDINES AND METHODS OF USE” (THERAVANCE BIOPHARMA R&D IP, LLC, priority 2020, published 2023).

How the values were obtained:
[1] = system: TGF-β-stimulated SMAD3 phosphorylation in BEAS-2B cells; assay: Cellular ALK5 potency assay, inhibition of TGF-β stimulated pSMAD3 formation in BEAS-2B cells; assay type: cell-based; settings: Homo sapiens, pSMAD3, TGF-β 10 ng/mL, read-out: BEAS2B pIC50 (converted)
Description: The potency of compounds of the present disclosure for inhibition of TGF-β-stimulated SMAD3 phosphorylation was measured in BEAS-2B cells, a human lung epithelial cell line. TGF-β signals through activin receptor-like kinase 5 (ALK5) immediately prior to SMAD3 phosphorylation.
BEAS-2B cells were grown using 50% DMEM (Life Technologies) and 50% F-12 (Life Technologies) media, supplemented with 10% Fetal Bovine Serum (ATCC), 25 mM HEPES (Life Technologies), and 1×Pen-Strep (Life Technologies). Cells were cultured in a humidified incubator set at 37° C., 5% CO2, and trypsonized using 0.25% Trypsin with 0.5% polyvinylpyrrolidone (PVP).
For the assay, BEAS-2B cells were seeded at 7,500 cells/well (25 μL/well) in a 384-well plate and cultured overnight. Before dosing, growth media was aspirated and the wells were rinsed with HBSS Buffer (HBSS with Calcium and Magnesium, Life Technologies) supplemented with 25 mM HEPES (Life Technologies) and 1% Bovine Serum Albumin (Roche). Compounds were serially diluted in DMSO, then further diluted with supplemented HBSS Buffer (50 μL/well) to create a compound plate 3× of the final assay concentration, at 0.3% DMSO. The diluted compounds were then added to the cells (8 μL/well) and incubated at 37° C., 5% CO2 for 1 hour. After the compound incubation, TGF-β (R&D Systems) reconstituted in supplemented HBSS Buffer was added to the cells ([…], final concentration 10 ng/mL) and incubated for a further 30 minutes, after which the cells were immediately lysed with AlphaLISA lysis buffer (PerkinElmer). AlphaLISA Acceptor and Detector beads (PerkinElmer) were added 2 hours apart, then incubated overnight to be read the next day. The potency of the compound was determined through analysis of dose-dependent quantified changes in pSMAD3 signal from baseline (non-compound treated TGF-β stimulated cells). Data are expressed as pIC50 (negative decadic logarithm IC50) values.

[2] = biological target: T1, recombinant human ALK5 (TGF-βR1) protein (Homo sapiens, UniProt P36897); assay: Biochemical ALK5 (TGF-βR1) assay to measure pKi (LANCE Ultra ULight kinase assay); settings: apparent pKi, converted from pIC50 by Cheng-Prusoff
T1 construct: purchased Life Technologies PR9075A
T1 sequence (P36897 34-503): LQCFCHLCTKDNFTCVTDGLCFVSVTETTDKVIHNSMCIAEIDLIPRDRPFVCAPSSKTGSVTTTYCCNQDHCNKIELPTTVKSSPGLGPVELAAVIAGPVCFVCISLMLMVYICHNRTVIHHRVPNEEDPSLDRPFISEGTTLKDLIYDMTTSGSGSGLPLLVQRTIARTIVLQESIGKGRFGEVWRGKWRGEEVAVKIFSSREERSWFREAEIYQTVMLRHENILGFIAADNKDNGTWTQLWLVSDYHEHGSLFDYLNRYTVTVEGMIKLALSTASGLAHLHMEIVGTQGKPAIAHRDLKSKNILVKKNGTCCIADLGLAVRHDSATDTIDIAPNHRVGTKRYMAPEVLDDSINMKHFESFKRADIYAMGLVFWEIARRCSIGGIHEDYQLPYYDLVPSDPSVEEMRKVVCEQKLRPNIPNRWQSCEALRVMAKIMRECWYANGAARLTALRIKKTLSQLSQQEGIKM
Description: The assays were performed in a 384-well plate (24 columns×16 wells/rows). An Echo®550 Liquid Handler (Labcyte) was used to prepare various intermediate concentrations of compounds of the present disclosure in 100% DMSO. From the intermediate concentrations, a range of concentrations (from […] to 25 μM corresponding to volumes up to 105 nL) were prepared and ejected into a final assay plate to be used to create individual dose response curves for each of the subject compounds. To a separate column within the assay plate, 105 nL of DMSO in each well was used to establish a maximum assay signal. Additionally, 105 nL of 100 μM SD-208, a selective TGF-βR1 inhibitor (Catalog #S7624, Selleck Chemicals), was used in another column of wells to establish a minimal assay signal.
With a multidrop dispenser, 8 μL of enzyme mixture (1.25× final) was added to each well. […] The plate was then sealed with an adhesive seal and allowed to equilibrate for 60 minutes at room temperature.
Next, 2 μL of 125 μM ATP (5×final, 125 μM ATP prepared in assay buffer with 2 mM DTT) was added to the incubated mixtures, covered with a MicroClime® Environmental Lid (Product No. LLS-0310, Labcyte) and immediately transferred to 37° C. The reactions were allowed to proceed at 37° C. for 60 minutes before terminating with the addition of 10 μL of detection antibody (LANCE® (lanthanide chelate excite) Ultra Europium-anti-phospo-DNA Topoisomerase 2-alpha (Thr1342)) in detection mixture (12 mM EDTA, 4 nM detection antibody prepared in detection buffer (50 mM Tris-HCl, 150 mM NaCl, 0.5% BSA (Fraction V), pH 7.0)) at room temperature. The plate was then read on a Perkin Elmer EnVision Plate Reader using europium specific reader settings with excitation and emission wavelengths set to 320 or 340 nm and 665 nm, respectively.
For dose-response analyses, percent inhibition versus compound concentrations were plotted, and pIC50 values were determined from a 4-parameter robust fit model with GraphPad Prism V5 Software (GraphPad Software, Inc., La Jolla, CA). This model obtains pIC50 values by fitting the sigmoidal dose-response (variable slope) equation to the data. Results were expressed as pIC50 (negative logarithm of IC50) and subsequently converted to pKi (negative logarithm of dissociate constant, Ki) using the Cheng-Prusoff equation. The higher the value of pKi (lower value of Ki), the greater the inhibition of ALK5 activity.

Compound	IC50 [1]	Ki [2]
Cc1cccc(-c2nccc(Nc3ccnc(Nc4ccc(N5CCNC(C)C5)cc4)n3)n2)n1 (racemic) [Compound 7, N4-[2-(6-methyl-2-pyridyl)pyrimidin-4-yl]-N2-[4-[rac-(3R)-3-methylpiperazin-1-yl]phenyl]pyrimidine-2,4-diamine]	25.1 to 158 nM	–
Cc1cccc(-c2nccc(Nc3ccnc(Nc4ccc(N5CCNCC5CC(=O)O[C@@H]5CCN(C)C5)cc4)n3)n2)n1 (mixture of isomers) [Compound 103, (R)-1-methylpyrrolidin-3-yl 2-(1-(4-((4-((2-(6-methylpyridin-2-yl)pyrimidin-4-yl)amino)pyrimidin-2-yl)amino)phenyl)piperazin-2-yl)acetate]	200 to 1260 nM	0.398 to 3.16 nM
Cc1cccc(-c2nccc(Nc3ccnc(Nc4ccc(CN5CCCC(C(=O)O[C@@H]6CCNC6)C5)cc4)n3)n2)n1 (mixture of isomers) [Compound 105, [rac-(3R)-pyrrolidin-3-yl] 1-[[4-[[4-[[2-(6-methyl-2-pyridyl)pyrimidin-4-yl]amino]pyrimidin-2-yl]amino]phenyl]methyl] piperidine-3-carboxylate]	25.1 to 158 nM	0.0398 to 0.316 nM
CCC(C)OC(=O)C1CN(c2ccc(Nc3nccc(Nc4ccnc(-c5cccc(C)n5)n4)n3)cc2)CCN1 (racemic) [Compound 192, [rac-(1R)-1-methylpropyl] 4-[4-[[4-[[2-(6-methyl-2-pyridyl)pyrimidin-4-yl]amino]pyrimidin-2-yl]amino]phenyl]piperazine-2-carboxylate]	25.1 to 158 nM	0.0398 to 0.316 nM
Cc1cccc(-c2nccc(Nc3ccnc(Nc4ccc(CN5CCCC(C(=O)O[C@H]6CCNC6)C5)cc4)n3)n2)n1 (mixture of isomers) [Compound 212, [rac-(3S)-pyrrolidin-3-yl] 1-[[4-[[4-[[2-(6-methyl-2-pyridyl)pyrimidin-4-yl]amino]pyrimidin-2-yl]amino]phenyl]methyl] piperidine-3-carboxylate]	25.1 to 158 nM	0.0398 to 0.316 nM
Cc1cccc(-c2nccc(Nc3ccnc(Nc4ccc(N5CCNCC5C)cc4)n3)n2)n1 (racemic) [Compound 216, N4-[2-(6-methyl-2-pyridyl)pyrimidin-4-yl]-N2-[4-[rac-(2S)-2-methylpiperazin-1-yl]phenyl]pyrimidine-2,4-diamine]	25.1 to 158 nM	0.0398 to 0.316 nM
CCC(C)OC(=O)C1CNCCN1c1ccc(Nc2nccc(Nc3ccnc(-c4cccc(C)n4)n3)n2)cc1 (racemic) [Compound 230, [rac-(1R)-1-methylpropyl] 1-[4-[[4-[[2-(6-methyl-2-pyridyl)pyrimidin-4-yl]amino]pyrimidin-2-yl]amino]phenyl]piperazine-2-carboxylate]	25.1 to 158 nM	0.398 to 3.16 nM
Cc1cccc(-c2nccc(Nc3ccnc(Nc4ccc(N(C)C5CCNC5)cc4)n3)n2)n1 (racemic) [Compound 274, N4-[2-(6-methyl-2-pyridyl)pyrimidin-4-yl]-N2-[4-[methyl-[rac-(3R)-pyrrolidin-3-yl]amino]phenyl]pyrimidine-2,4-diamine]	25.1 to 158 nM	0.0398 to 0.316 nM
Cc1cccc(-c2nccc(Nc3ccnc(Nc4ccc(CN5[C@H]6CCNC[C@@H]5CC6)cc4)n3)n2)n1 (racemic) [Compound 360, N4-[2-(6-methyl-2-pyridyl)pyrimidin-4-yl]-N2-[4-[[rac-(1S,6R)-3,9-diazabicyclo[4.2.1]nonan-9-yl]methyl]phenyl]pyrimidine-2,4-diamine]	25.1 to 158 nM	0.0398 to 0.316 nM
Cc1cccc(-c2nccc(Nc3ccnc(Nc4ccc(N5CCNC(C)C5)cc4)n3)n2)n1 (racemic) [Compound 528, N4-[2-(6-methyl-2-pyridyl)pyrimidin-4-yl]-N2-[4-[rac-(3S)-3-methylpiperazin-1-yl]phenyl]pyrimidine-2,4-diamine]	–	0.0398 to 0.316 nM
Cc1cccc(-c2ncc(C(=O)O)c(Nc3ccnc(Nc4ccc(N)cc4)n3)n2)n1 [Compound 26, 4-[[2-(4-aminoanilino)pyrimidin-4-yl]amino]-2-(6-methyl-2-pyridyl)pyrimidine-5-carboxylic acid]	1580 to 10000 nM	–
Cc1cccc(-c2nccc(Nc3ccnc(Nc4ccc(CN5CC(CO)C5)cc4)n3)n2)n1 [Compound 266, [1-[[4-[[4-[[2-(6-methyl-2-pyridyl)pyrimidin-4-yl]amino]pyrimidin-2-yl]amino]phenyl]methyl]azetidin-3-yl]methanol]	–	0.0398 to 0.316 nM
CNC(=O)Cc1cc(Nc2ccnc(Nc3ccc(N4CCNCC4)cc3)n2)nc(-c2cccc(C)n2)n1 [Compound 309, N-methyl-2-[2-(6-methyl-2-pyridyl)-6-[[2-(4-piperazin-1-ylanilino)pyrimidin-4-yl]amino]pyrimidin-4-yl]acetamide]	200 to 1260 nM	–
Cc1cccc(-c2nccc(Nc3ccnc(Nc4ccc(CN5CC[C@@H](O)C5)cc4)n3)n2)n1 [Compound 319, (3R)-1-[[4-[[4-[[2-(6-methyl-2-pyridyl)pyrimidin-4-yl]amino]pyrimidin-2-yl]amino]phenyl]methyl] pyrrolidin-3-ol]	–	≤ 0.0316 nM
COC(=O)c1ccc(Nc2nccc(Nc3nc(-c4cccc(C)n4)ncc3C(=O)OC)n2)cc1 [Compound 468, methyl 4-[[2-(4-methoxycarbonylanilino)pyrimidin-4-yl]amino]-2-(6-methyl-2-pyridyl) pyrimidine-5-carboxylate]	200 to 1260 nM	–
Cc1cccc(-c2nccc(Nc3ccnc(Nc4ncc(N5CCNCC5)s4)n3)n2)n1 [Compound 640, N4-[2-(6-methyl-2-pyridyl)pyrimidin-4-yl]-N2-(5-piperazin-1-ylthiazol-2-yl)pyrimidine-2,4-diamine]	–	3.98 to 31.6 nM
CNC(=O)Cc1cc(Nc2ccnc(Nc3ccc(N4CCNCC4)cc3)n2)nc(-c2cccc(C)n2)n1 [Compound 1008, N-methyl-2-[2-(6-methyl-2-pyridyl)-6-[[2-(4-piperazin-1-ylanilino)pyrimidin-4-yl]amino]pyrimidin-4-yl] acetamide]	–	3.98 to 31.6 nM
COC(=O)c1ccc(Nc2nccc(Nc3nc(-c4cccc(C)n4)ncc3C(=O)OC)n2)cc1 [Compound 1043, methyl 4-[[2-(4-methoxycarbonylanilino)pyrimidin-4-yl]amino]-2-(6-methyl-2-pyridyl)pyrimidine-5-carboxylate]	–	3.98 to 31.6 nM
Cc1cccc(-c2ncc(C(=O)O)c(Nc3ccnc(Nc4ccc(N)cc4)n3)n2)n1 [Compound 1044, 4-[[2-(4-aminoanilino)pyrimidin-4-yl]amino]-2-(6-methyl-2-pyridyl)pyrimidine-5-carboxylic acid]	–	0.398 to 3.16 nM
